From patent US9029384B2, “Phosphatidylinositol 3-kinase inhibitors” (Gilead Calistoga LLC, priority 2012, dated 2015)

Columns and labels:
[1] = test system: basophils; experiment: Basophil activation in human whole blood (Flow2 CAST kit, CD63 positive cells); assay type: cell-based; details: basophils activated with anti-FcεRI mAb or fMLP, geometric mean
Protocol: Effect on basophil activation was measured in human whole blood using the Flow2 CAST® kit (Buhlmann Laboratories AG, Baselstrasse, Switzerland) following the protocol provided by the manufacturer with minor modifications. Human whole blood was collected into K2-EDTA venipuncture tubes. Whole blood samples were treated with either DMSO (0.3% final) or a serial dilution of compounds in DMSO for 60 minutes at 37° C. Basophils were then activated either with anti-FcεRI mAb or with fMLP. To activate basophils using the anti-FcεRI mAb; 50 μl of whole blood was mixed with 110 μl of stimulation buffer (B-BAT-STB) and 20 μl of anti-FcεRI (B-BAT-STCON). To activate basophils with fMLP; 50 μl of whole blood was mixed with 80 μl of stimulation buffer (B-BAT-STB) and 50 μl of fMLP (B-CCR-FMLP). Stimulation buffer was used as a negative control. 20 μl of the staining reagent (combination of anti-human CD63-FITC and anti-human CCR3-PE mAbs) was then added to each tube. […] Subsequently, erythrocytes were lysed and fixed by the addition of 2 ml of lysing solution (B-BAT-LYR) for 10 min at room temperature. Cells were pelleted by centrifugation at 1200 rpm for 10 min at room temperature in a swing-out rotor. Supernatant was aspirated and cell pellet resuspended in 400 μl of wash buffer. Flow cytometric analysis of the basophil activation was performed on a FC500MPL flow cytometer (Beckman Coulter Inc., Fullerton, Calif.). CCR3-staining and side scatter were applied to gate at least 200 basophils that expressed a high density of CCR3. The percent CD63 positive cells within the gated basophil population were determined in different treatment groups and normalized to the vehicle control (0.3% DMSO) with anti-FcεRI mAb of fMLP stimulus as 100%. Final compound concentration was adjusted to correct for dilution effect of added reagents. The EC50 values were calculated from the analysis of the dose-response curves to a four-parameter equation. All EC50 values represent geometric mean values and are reported in units of nM.

[2] = target: T1, PI3Kδ (Homo sapiens, UniProt O00329); experiment: Enzymatic activity of PI3K isoforms, TR-FRET assay (PIP3 formation); assay type: biochemical; details: PI3Kδ; TR-FRET, 2×Km ATP, 10 μM PIP2; read-out: IC50
T1 construct: made in house
T1 sequence (O00329 whole entry, canonical isoform): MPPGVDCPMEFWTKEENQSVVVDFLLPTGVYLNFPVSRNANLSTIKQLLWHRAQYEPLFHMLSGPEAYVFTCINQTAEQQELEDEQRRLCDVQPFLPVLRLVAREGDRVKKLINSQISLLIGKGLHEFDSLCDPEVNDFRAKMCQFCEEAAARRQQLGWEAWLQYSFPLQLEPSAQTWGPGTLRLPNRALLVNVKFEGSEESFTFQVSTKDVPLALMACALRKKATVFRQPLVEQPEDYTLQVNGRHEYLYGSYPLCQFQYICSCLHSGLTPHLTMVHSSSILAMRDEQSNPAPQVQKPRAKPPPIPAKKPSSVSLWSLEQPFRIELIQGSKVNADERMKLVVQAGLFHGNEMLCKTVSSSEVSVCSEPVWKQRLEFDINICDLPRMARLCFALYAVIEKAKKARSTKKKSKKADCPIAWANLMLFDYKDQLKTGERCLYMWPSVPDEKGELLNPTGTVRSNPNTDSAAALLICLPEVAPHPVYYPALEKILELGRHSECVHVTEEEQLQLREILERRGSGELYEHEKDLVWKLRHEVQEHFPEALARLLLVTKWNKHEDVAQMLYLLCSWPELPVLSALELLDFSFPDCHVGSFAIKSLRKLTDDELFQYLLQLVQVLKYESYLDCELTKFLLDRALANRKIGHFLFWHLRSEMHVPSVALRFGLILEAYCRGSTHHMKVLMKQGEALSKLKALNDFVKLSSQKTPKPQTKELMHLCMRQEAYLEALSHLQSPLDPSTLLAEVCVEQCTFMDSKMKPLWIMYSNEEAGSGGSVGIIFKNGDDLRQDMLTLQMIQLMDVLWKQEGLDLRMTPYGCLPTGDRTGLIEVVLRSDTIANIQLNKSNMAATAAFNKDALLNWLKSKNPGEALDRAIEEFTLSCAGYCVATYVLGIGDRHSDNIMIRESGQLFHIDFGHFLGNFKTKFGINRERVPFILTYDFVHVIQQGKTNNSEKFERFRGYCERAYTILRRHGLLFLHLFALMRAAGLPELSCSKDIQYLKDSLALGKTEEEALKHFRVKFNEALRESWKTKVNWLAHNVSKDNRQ
T1 sequence (P27986 whole entry partner, canonical isoform): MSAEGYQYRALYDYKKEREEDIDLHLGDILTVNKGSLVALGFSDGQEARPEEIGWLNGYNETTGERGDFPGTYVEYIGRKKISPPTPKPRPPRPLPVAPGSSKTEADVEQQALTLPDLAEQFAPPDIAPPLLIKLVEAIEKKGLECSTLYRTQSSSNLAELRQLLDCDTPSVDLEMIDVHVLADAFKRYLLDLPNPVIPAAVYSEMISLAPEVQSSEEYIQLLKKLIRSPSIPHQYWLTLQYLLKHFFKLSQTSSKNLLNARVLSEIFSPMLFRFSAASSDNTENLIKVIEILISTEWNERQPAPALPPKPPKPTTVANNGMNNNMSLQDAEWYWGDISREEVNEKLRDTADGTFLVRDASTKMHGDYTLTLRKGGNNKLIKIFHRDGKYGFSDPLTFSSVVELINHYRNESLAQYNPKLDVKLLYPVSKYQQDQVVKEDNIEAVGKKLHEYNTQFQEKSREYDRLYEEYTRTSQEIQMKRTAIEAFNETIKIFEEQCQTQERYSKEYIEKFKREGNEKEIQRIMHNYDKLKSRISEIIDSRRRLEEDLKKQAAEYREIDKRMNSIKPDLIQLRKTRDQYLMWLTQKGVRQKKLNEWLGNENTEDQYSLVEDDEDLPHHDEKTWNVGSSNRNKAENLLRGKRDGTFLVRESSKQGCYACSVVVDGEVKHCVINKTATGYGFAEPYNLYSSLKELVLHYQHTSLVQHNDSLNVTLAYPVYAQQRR
Excerpt: Enzymatic Activity of PI3K Isoforms
The TR-FRET assay was used to monitor formation of the product 3,4,5-inositol triphosphate molecule (PIP3) as it competed with fluorescently labeled PIP3 for binding to the GRP-1 pleckstrin homology domain protein. An increase in […] product results in a decrease in TR-FRET signal as the labeled fluorophore is displaced from the GRP-1 protein binding site.
Class I PI3K isoforms were expressed and purified as heterodimeric recombinant proteins. All assay reagents and buffers for the TR-FRET assay were purchased from Millipore. […] After an assay reaction time of 30 minutes at 25° C., reactions were terminated with a final concentration of 10 mM EDTA, 10 nM labeled-PIP3, and 35 nM Europium labeled GRP-1 detector protein before reading TR-FRET on an Envision plate reader (Ex: 340 nm; Em: 615/665 nm; 100 μs delay and 500 μs read window).
Data are normalized based on a positive (1 uM wortmanin) and negative (DMSO) controls. The α, β, δ, and γ IC50 values were calculated from the fit of the dose-response curves to a four-parameter equation. IC50 are reported in units of nM.
IC50 values were obtained for all PI3K isoforms (α, β, δ, and γ), and Table 2 summarizes the IC50 data collected for PI3Kδ in this Example B1.

| Compound | EC50 ([1]; Homo sapiens) [µM] | IC50 [2] [µM] | EC50 [1] [µM] |
| --- | --- | --- | --- |
| Cc1cccc2c(=O)n(-c3cccc(Cl)c3)c(C(C)Nc3nc(N)nc(N)c3C#N)nc12 (single isomer, unassigned) [Compound 6a] | > 0.05 | < 0.001 |  |
| CC(Nc1nc(N)nc(N)c1C#N)c1nc2cccc(C#N)c2c(=O)n1-c1ccccc1 (single isomer, unassigned) [Compound 7a] | < 0.001 | 0.001 to 0.01 |  |
| CC(Nc1nc(N)nc(N)c1C#N)c1nc2ccc(F)cc2c(=O)n1-c1ccccc1 (single isomer, unassigned) [Compound 9a] | 0.001 to 0.01 | 0.001 to 0.01 |  |
| CC(Nc1nc(N)nc(N)c1C#N)c1nc2ccc(F)cc2c(=O)n1-c1cccc(Cl)c1 (single isomer, unassigned) [Compound 14a] | 0.001 to 0.01 | 0.001 to 0.01 |  |
| Cc1cccc2nc(C(C)Nc3nc(N)nc(N)c3C#N)n(-c3ccccc3)c(=O)c12 (single isomer, unassigned) [Compound 23a] | < 0.001 | < 0.001 |  |
| CC(Nc1nc(N)nc(N)c1C#N)c1nc2cccc(Cl)c2c(=O)n1-c1cc(F)cc(C(F)(F)F)c1 (single isomer, unassigned) [Compound 45a] | > 0.05 | 0.001 to 0.01 |  |
| CC(Nc1nc(N)nc(N)c1C#N)c1nc2c(F)cccc2c(=O)n1-c1ccccc1 (single isomer, unassigned) [Compound 58a] | 0.001 to 0.01 | 0.001 to 0.01 |  |
| CC(Nc1nc(N)nc(N)c1C#N)c1nc2c(F)ccc(F)c2c(=O)n1-c1ccccc1 (single isomer, unassigned) [Compound 59a] | 0.001 to 0.01 | < 0.001 |  |
| Cc1ccc(F)c2nc(C(C)Nc3nc(N)nc(N)c3C#N)n(-c3ccccc3)c(=O)c12 (single isomer, unassigned) [Compound 60a] | < 0.001 | < 0.001 |  |
| CC(Nc1nc(N)nc(N)c1C#N)c1nc2cccc(C(F)F)c2c(=O)n1-c1ccccc1 (single isomer, unassigned) [Compound 62a] | < 0.001 | < 0.001 |  |
| Cc1ccc(F)c2nc(C(C)Nc3nc(N)nc(N)c3C#N)n(-c3cccc(C#N)c3)c(=O)c12 (single isomer, unassigned) [Compound 64a] | 0.001 to 0.01 | < 0.001 |  |
| CC(Nc1nc(N)nc(N)c1C#N)c1nc2c(F)cc(F)cc2c(=O)n1-c1cc(F)cc(F)c1 (single isomer, unassigned) [Compound 70a] | 0.001 to 0.01 | 0.01 to 0.05 |  |
| CC(Nc1nc(N)nc(N)c1C#N)c1nc2cccc(F)c2c(=O)n1-c1ccccc1 (single isomer, unassigned) [Compound 81a] | < 0.001 | 0.001 to 0.01 |  |
| CC(Nc1nc(N)nc(N)c1C#N)c1nc2cccc(C(N)=O)c2c(=O)n1-c1ccccc1 (single isomer, unassigned) [Compound 92a] | > 0.05 | 0.001 to 0.01 |  |
| CC(Nc1nc(N)nc(N)c1C#N)c1nc2cccc(S(C)(=O)=O)c2c(=O)n1-c1ccccc1 (single isomer, unassigned) [Compound 95a] | 0.01 to 0.05 | 0.001 to 0.01 |  |
| CC(Nc1nc(N)nc(N)c1C#N)c1nc2cccc(S(C)(=O)=O)c2c(=O)n1-c1cc(F)cc(F)c1 (single isomer, unassigned) [Compound 96a] | 0.01 to 0.05 | 0.001 to 0.01 |  |
| COc1cccc2nc(C(C)Nc3nc(N)nc(N)c3C#N)n(-c3ccccc3)c(=O)c12 (single isomer, unassigned) [Compound 111a] | > 0.05 | 0.01 to 0.05 |  |
| CC(Nc1nc(N)nc(N)c1C#N)c1nc2cccc(Cl)c2c(=O)n1-c1cc(Cl)cc(C(F)F)c1 (single isomer, unassigned) [Compound 115a] | 0.01 to 0.05 | 0.001 to 0.01 |  |
| CC(Nc1nc(N)nc(N)c1C#N)c1nc2cccc(S(C)(=O)=O)c2c(=O)n1-c1cccc(C(F)F)c1 (single isomer, unassigned) [Compound 116a] | > 0.05 | 0.001 to 0.01 |  |

| Compound | EC50 ([1]; Homo sapiens) [µM] | IC50 [2] [µM] | EC50 [1] [µM] |
| --- | --- | --- | --- |
| CC(Nc1nc(N)nc(N)c1C#N)c1nc2cccc(S(C)(=O)=O)c2c(=O)n1-c1cccc(F)c1 (single isomer, unassigned) [Compound 117a] | 0.01 to 0.05 | 0.001 to 0.01 |  |
| CC(Nc1nc(N)nc(N)c1C#N)c1nc2cccc(Cl)c2c(=O)n1-c1cc(C(F)F)cc(C(F)F)c1 (single isomer, unassigned) [Compound 119a] | 0.01 to 0.05 | 0.001 to 0.01 |  |
| CC(Nc1nc(N)nc(N)c1C#N)c1nc2c(F)ccc(C#N)c2c(=O)n1-c1ccccc1 (single isomer, unassigned) [Compound 124a] | 0.001 to 0.01 | 0.001 to 0.01 |  |
| CC(Nc1nc(N)nc(N)c1C#N)c1nc2c(F)ccc(C#N)c2c(=O)n1-c1cc(F)cc(F)c1 (single isomer, unassigned) [Compound 125a] | 0.01 to 0.05 | 0.01 to 0.05 |  |
| CC(Nc1nc(N)nc(N)c1C#N)c1nc2cccc(Br)c2c(=O)n1-c1ccccc1 (single isomer, unassigned) [Compound 129a] | < 0.001 | < 0.001 |  |
| CC(Nc1nc(N)nc(N)c1C#N)c1nc2cccc(C#N)c2c(=O)n1-c1cccc(F)c1 (single isomer, unassigned) [Compound 131a] | 0.001 to 0.01 | 0.001 to 0.01 |  |
| CC(Nc1nc(N)nc(N)c1C#N)c1nc2cccc(Cl)c2c(=O)n1-c1cc(C(F)F)cc(C(F)F)c1 (single isomer, unassigned) [Compound 137a] |  | 0.001 to 0.01 | 0.01 to 0.05 |
| CC(Nc1nc(N)nc(N)c1C#N)c1nc2ccc(F)c(Cl)c2c(=O)n1-c1cc(F)cc(C(F)F)c1 (single isomer, unassigned) [Compound 141a] | 0.01 to 0.05 | 0.01 to 0.05 |  |
| CC(Nc1nc(N)nc(N)c1C#N)c1nc2cccc(S(C)(=O)=O)c2c(=O)n1-c1ccccc1F (single isomer, unassigned) [Compound 142a-1] | 0.01 to 0.05 | 0.001 to 0.01 |  |
| CC(Nc1nc(N)nc(N)c1C#N)c1nc2cccc(S(C)(=O)=O)c2c(=O)n1-c1ccccc1F (single isomer, unassigned) [Compound 142a-2] |  | 0.001 to 0.01 | 0.01 to 0.05 |
| CC(Nc1nc(N)nc(N)c1C#N)c1nc2cccc(S(C)(=O)=O)c2c(=O)n1-c1c(F)cccc1F (single isomer, unassigned) [Compound 146a] | > 0.05 | 0.001 to 0.01 |  |
| CC(Nc1nc(N)nc(N)c1C#N)c1nc2c(F)ccc(F)c2c(=O)n1-c1cccc(F)c1 (single isomer, unassigned) [Compound 148a] | < 0.001 | 0.001 to 0.01 |  |
| CC(Nc1nc(N)nc(N)c1Cl)c1nc2cccc(S(C)(=O)=O)c2c(=O)n1-c1cccc(F)c1 (single isomer, unassigned) [Compound 153a] | 0.01 to 0.05 | 0.001 to 0.01 |  |
| COc1cccc2c(=O)n(-c3ccccc3)c(C(C)Nc3nc(N)nc(N)c3C#N)nc12 (single isomer, unassigned) [Compound 156a] | 0.01 to 0.05 | > 0.05 |  |
| CC(Nc1nc(N)nc(N)c1C#N)c1nc2c(C#N)cc(F)cc2c(=O)n1-c1cc(F)cc(F)c1 (single isomer, unassigned) [Compound 161a] | 0.01 to 0.05 | 0.01 to 0.05 |  |
| CC(C)CC(Nc1nc(N)nc(N)c1C#N)c1nc2cccc(Cl)c2c(=O)n1-c1cccc(C#N)c1 (single isomer, unassigned) [Compound 167a] | > 0.05 | 0.01 to 0.05 |  |
| CC(C)CC(Nc1nc(N)nc(N)c1C#N)c1nc2cccc(Cl)c2c(=O)n1-c1cccc(F)c1 (single isomer, unassigned) [Compound 168a] | > 0.05 | 0.001 to 0.01 |  |
| COc1cc(-n2c(C(C)Nc3nc(N)nc(N)c3C#N)nc3cccc(Cl)c3c2=O)ccc1C (single isomer, unassigned) [Compound 184a] | > 0.05 | 0.01 to 0.05 |  |
| COc1cc(-n2c(C(C)Nc3nc(N)nc(N)c3C#N)nc3cccc(Cl)c3c2=O)ccc1F (single isomer, unassigned) [Compound 186a] | 0.01 to 0.05 | 0.001 to 0.01 |  |
